From patent US20210348119A1, “COMPOSITIONS AND METHODS FOR CELL CULTURE” (The United States of America as Represented By The …, priority 2018, published 2021)
Read-outs that look alike come from different tables or passages of the source.

Tests used:
H9 cells [1] = test: Survival and attachment of single-cell dissociated cells (CellTiter-Glo, time-lapse imaging); format: cell-based, human; details: 50 nM Chroman 1, 5 μM Emricasan; vitronectin-coated plates, over 24 hours
Protocol: CellTiter-Glo® assay was used to quantify viable […] cells 24 hours post-plating (100,000 cells/[…]). […] Cellular stress was already apparent 20 minutes after plating in the presence of Emricasan, which ultimately led to dead cells at 24 hours.

H9 cells [2] = test: Cell survival after routine passage (caspase 3/7 imaging, CTG); format: cell-based, human; details: 100,000 cells per cm^2; 10 μM Y-27632, 50 nM Chroman 1, 5 μM Emricasan
H9 cells [3] = test: qHTS for survival of dissociated H9 cells (CellTiter-Glo, 24 hours after seeding); format: cell-based, human; details: Homo sapiens, H9, 24 h
From the text: FIG. 2 schematically illustrates qHTS procedure.
All the screed compounds were received pre-plated at the pre-determined concentrations. […] Curve classification is explained in Huang et al. “Chemical genomics profiling of environmental chemical modulation of human nuclear receptors” Environ. Health. Perspect.

H9 cells [4] = test: Dose-response curves of selected ROCK inhibitors, cell survival (CTG); format: cell-based, human; details: four replicates, normalized to CTG reading at 10 μM Y-27632
From the text: Molar concentrations of the selected ROCK inhibitors are plotted on the X-axis (log scale). […] Thusly normalized data were plotted on the Y-axis.

H9 cells [5] = test: Embryoid body formation assays; details: AggreWell plates, 24 hours after seeding
Protocol: In one series of experiments, H9 cells were dissociated with Accutase. […] Embryoid body (EB) formation was examined 24 hours after cell seeding.
In a different experimental approach (data not shown), a defined number of H9 cells was plated into AggreWell™ plates (StemCell Technologies, Vancouver, Canada) to generate single EBs per well. Embryoid body (EB) formation was examined 24 hours after cell seeding.
Pluripotent stem cells (WA09, also called H9 cells, obtained from WiCell, Madison, Wis.) dissociated with Accutase were seeded into AggreWell™ plates (StemCell Technologies, Vancouver, Canada) to generate EBs. Bright field images were taken 24 hours after seeding.
H9 cells dissociated with Accutase were seeded into 96-well plates (ultra-low attachment) to generated EBs. After 24 hours, calcein (green staining, live cells) and PI (red staining, dead cells) were added to the cell culture medium to visualize live and dead cells in the wells.

H9 cells [6] = test: Long-term passaging of H9 cells (40 passages); format: cell-based, human; details: 24 hours treatment at every passage
human kinases = test: Kinase profiling, HotSpot Kinase Assay; format: biochemical; details: Y-27632 at 10 μM, Chroman 1 at 50 nM
From the text: The results of kinase profiling experiments are illustrated in FIG. 8. […] The phylogenic trees of human kinases were generated based on a neighbor-joining tree via ClustalW software derived from multiple protein sequence alignment of human kinase domains (Manning et al., “The protein kinase complement of the human genome” Science 298:1912-1934 (2002)).

ROCK1 = molecular target: T1, ROCK1 (Homo sapiens, UniProt Q13464); test: HotSpot Kinase Assay (Reaction Biology) ROCK1; format: biochemical
T1 construct: purchased Reaction Biology Corporation (Malvern, Pa.)
T1 sequence (Q13464 whole entry): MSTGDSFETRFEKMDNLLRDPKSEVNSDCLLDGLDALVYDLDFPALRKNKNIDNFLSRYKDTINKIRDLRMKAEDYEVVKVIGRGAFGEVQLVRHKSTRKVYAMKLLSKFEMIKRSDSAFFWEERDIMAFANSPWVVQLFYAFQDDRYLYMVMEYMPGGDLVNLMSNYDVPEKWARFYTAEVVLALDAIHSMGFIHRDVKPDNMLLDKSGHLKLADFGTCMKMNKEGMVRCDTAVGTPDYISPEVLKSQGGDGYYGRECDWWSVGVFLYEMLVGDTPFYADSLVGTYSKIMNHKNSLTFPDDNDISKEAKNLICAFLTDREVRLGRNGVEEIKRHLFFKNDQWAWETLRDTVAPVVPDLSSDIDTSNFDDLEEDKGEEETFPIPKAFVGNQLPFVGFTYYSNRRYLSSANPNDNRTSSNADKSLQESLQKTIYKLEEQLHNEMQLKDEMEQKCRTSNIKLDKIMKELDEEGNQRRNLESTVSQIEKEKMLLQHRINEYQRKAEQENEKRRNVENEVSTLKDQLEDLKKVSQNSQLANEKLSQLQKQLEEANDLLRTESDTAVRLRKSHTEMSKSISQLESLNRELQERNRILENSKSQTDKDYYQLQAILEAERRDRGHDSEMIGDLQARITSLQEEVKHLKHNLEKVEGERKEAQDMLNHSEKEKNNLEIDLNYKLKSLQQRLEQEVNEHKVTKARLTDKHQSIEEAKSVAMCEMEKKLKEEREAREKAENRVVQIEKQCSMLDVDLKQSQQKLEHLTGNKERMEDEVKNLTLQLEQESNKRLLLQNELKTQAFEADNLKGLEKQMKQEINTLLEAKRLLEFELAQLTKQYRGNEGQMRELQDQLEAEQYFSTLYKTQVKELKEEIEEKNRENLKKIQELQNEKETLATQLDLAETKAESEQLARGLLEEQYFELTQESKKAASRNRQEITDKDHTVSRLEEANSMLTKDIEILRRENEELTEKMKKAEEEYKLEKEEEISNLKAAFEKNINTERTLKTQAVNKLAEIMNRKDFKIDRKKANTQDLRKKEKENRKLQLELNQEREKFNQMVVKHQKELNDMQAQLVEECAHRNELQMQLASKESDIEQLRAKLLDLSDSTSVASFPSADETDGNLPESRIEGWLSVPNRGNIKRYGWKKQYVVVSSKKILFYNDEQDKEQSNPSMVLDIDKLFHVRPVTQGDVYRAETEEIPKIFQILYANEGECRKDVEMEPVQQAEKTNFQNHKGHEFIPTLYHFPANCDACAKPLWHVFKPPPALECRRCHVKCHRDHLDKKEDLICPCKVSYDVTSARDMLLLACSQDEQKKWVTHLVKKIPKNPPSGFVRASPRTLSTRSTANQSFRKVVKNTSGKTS

H9 cells [7] = test: Low seeding density screen for synergy with Chroman 1 and Emricasan; format: cell-based, human; details: validation of qHTS hits
Protocol: To extend and maximize the use of Chroman 1 and Emricasan for low cell seeding density conditions and single cell cloning, we developed another combinatorial screening strategy. Experimental studies were performed that identified Trans-ISRIB and polyamines as additional cell survival-promoting factors. An assay was developed to screen for compounds that are capable of overcoming cellular stress associated with low cell seeding density. The experiments aimed to define the detection limit and signal strength of the CTG assay in order to detect single cells per well. H9 cells (obtained from WiCell) were used.
Dissociated stem cells were plated onto vitronectin-coated 1536-well plates at the per-well densities indicated on the X-axis. All the plates were prepared in duplicates. One set of plates was read with CTG right after dispensing (r1), and the other set was read 24 hours after (r2). The CTG fold change plotted on Y-axis was calculated as the ratio of r2 to r1 (r2/r1) to reflect cell survival and growth within 24 hours. […] The middle line within the box is the median cell growth. The upper and lower box hinges represent the 75th and 25th percentiles, whereas the upper and lower whiskers extend from the box hinge to the largest or lowest value no further than 1.5× distance between 25th and 75th percentile.

H9 cells [8] = test: Colony formation at 25 cells/cm2; format: cell-based, human
Protocol: The experiments were performed validating the “hits” obtained from the primary screening. Pluripotent stem cells (H9 cells obtained from WiCell) were dissociated using TrypLE (Thermo-Fisher) and seeded into 6-well plates at a density of 25 cells/cm′.
Whole-well images (6-well plate) were captured with calcein green (0.5 μg/mL; Thermo Fisher Scientific, catalog number: C34852).
Systematic comparison of small molecule combinations and their effect on colony number and colony size of hESCs plated on vitronectin at 25 cells/cm^2 in StemFlex medium was performed. The quantification of the colony formation rate and median colony size was performed 6 days after plating.

karyotype after long-term passaging (H9 cells [6])	primary targets (human kinases)	specificity / off-target inhibition (human kinases; under 10% of original activity deemed significant)	IC50 against ROCK1 (comparison in words) (ROCK1)	SMILES	cell attachment and survival in time-lapse imaging (H9 cells [1])	cell survival after single-cell dissociation (H9 cells [2])	Emax (H9 cells [3]; H9 cell survival normalized to 10 μM Y-27632 (taken to be 100%), read-out: Max (maximum activity value from all tested concentrations)) [%]	AC50 (H9 cells [3]; H9 cell survival, CellTiter-Glo 24 hours after seeding, read-out: AC50 (concentration at 50% efficacy)) [nM]	Emax (H9 cells [3]; H9 cell survival, normalized to 10 μM Y-27632, read-out: Efficacy (activity range between predicted activities at zero and infinite doses, Hill equation)) [%]	potency in dose-response of cell survival (H9 cells [4])	single EB formation and dead cells (H9 cells [5])	cell survival at low density combined with 50 nM Chroman 1 and 5 μM Emricasan (H9 cells [7])	cell survival when added to the combination of Chroman 1 and Emricasan (H9 cells [8])
maintained a normal karyotype	ROCK1 and ROCK2	higher specificity	more potent ROCK inhibitor than Y-27632	COc1ccc2c(c1)C[C@H](C(=O)Nc1ccc(-c3cn[nH]c3)cc1OCCN(C)C)CO2 [Chroman 1, (3S)—N-{2-[2-(Dimethylamino)ethoxy]-4-(1H-pyrazol-4-yl)phenyl}-6-methoxy-3,4-dihydro-2H-1-benzopyran-3-carboxamide]	cell attachment already 20 min after plating	further improved cell survival	110	290	108	more potent than to Y-27632, Thiazovivin or Fasudil	amount of dead cells was significantly lower	–	–
–	–	–	–	O=C(COc1ccc(Cl)cc1)N[C@H]1CC[C@H](NC(=O)COc2ccc(Cl)cc2)CC1 [trans-ISRIB, N,N′-((1r,4r)-cyclohexane-1,4-diyl)bis(2-(4-chlorophenoxy)acetamide)]	–	–	–	–	–	–	–	cell survival-promoting effect	further improved cell survival
